Values quoted from earlier work, collected in paper PMC9516332 (Frontiers in Oncology, 2022).
Where two headings read alike, the source gives them in different places.

Experiments:
Conditions in all cases: cited from earlier work
[1] = molecular target: T1, panel of 255 wild-type kinases (Homo sapiens, UniProt Q14164)
T1 sequence (Q14164 1-716): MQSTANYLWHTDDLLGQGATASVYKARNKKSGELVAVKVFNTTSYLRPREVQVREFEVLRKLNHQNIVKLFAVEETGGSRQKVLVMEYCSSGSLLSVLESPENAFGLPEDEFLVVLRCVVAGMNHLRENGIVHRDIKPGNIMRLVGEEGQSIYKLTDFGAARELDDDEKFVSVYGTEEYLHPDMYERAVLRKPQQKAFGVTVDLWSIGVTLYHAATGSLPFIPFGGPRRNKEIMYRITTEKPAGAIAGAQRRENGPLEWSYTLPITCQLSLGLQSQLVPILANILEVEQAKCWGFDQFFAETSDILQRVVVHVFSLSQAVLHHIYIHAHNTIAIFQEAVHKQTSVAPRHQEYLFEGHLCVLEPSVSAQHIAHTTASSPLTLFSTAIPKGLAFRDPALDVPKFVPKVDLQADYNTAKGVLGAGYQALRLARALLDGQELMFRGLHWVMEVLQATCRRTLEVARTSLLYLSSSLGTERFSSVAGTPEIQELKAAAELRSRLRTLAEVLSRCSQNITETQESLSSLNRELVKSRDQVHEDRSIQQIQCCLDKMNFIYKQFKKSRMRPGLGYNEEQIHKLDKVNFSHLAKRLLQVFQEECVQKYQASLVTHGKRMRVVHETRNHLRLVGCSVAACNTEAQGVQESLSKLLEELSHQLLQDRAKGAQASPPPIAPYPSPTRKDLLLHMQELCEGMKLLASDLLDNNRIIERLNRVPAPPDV

[2] = molecular target: panel of 255 wild-type kinases (Homo sapiens, UniProt Q9H2G2)
[3] = molecular target: panel of 255 wild-type kinases (Homo sapiens, UniProt P06239)
[4] = molecular target: panel of 255 wild-type kinases (Homo sapiens, UniProt P42685)
[5] = molecular target: T2, panel of 255 wild-type kinases (Homo sapiens, UniProt Q96PN8)
T2 sequence (Q96PN8 1-268): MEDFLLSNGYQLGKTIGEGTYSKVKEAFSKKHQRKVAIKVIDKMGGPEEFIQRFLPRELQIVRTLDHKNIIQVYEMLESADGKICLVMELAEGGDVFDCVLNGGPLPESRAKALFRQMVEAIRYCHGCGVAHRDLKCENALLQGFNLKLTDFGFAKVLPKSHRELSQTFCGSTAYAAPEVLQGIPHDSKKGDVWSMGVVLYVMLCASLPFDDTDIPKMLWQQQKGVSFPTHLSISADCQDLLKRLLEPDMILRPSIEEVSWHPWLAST

[6] = molecular target: panel of 255 wild-type kinases (Homo sapiens, UniProt P78362)
[7] = molecular target: T3, panel of 255 wild-type kinases (Homo sapiens, UniProt Q8IWQ3)
T3 sequence (Q8IWQ3 1-736): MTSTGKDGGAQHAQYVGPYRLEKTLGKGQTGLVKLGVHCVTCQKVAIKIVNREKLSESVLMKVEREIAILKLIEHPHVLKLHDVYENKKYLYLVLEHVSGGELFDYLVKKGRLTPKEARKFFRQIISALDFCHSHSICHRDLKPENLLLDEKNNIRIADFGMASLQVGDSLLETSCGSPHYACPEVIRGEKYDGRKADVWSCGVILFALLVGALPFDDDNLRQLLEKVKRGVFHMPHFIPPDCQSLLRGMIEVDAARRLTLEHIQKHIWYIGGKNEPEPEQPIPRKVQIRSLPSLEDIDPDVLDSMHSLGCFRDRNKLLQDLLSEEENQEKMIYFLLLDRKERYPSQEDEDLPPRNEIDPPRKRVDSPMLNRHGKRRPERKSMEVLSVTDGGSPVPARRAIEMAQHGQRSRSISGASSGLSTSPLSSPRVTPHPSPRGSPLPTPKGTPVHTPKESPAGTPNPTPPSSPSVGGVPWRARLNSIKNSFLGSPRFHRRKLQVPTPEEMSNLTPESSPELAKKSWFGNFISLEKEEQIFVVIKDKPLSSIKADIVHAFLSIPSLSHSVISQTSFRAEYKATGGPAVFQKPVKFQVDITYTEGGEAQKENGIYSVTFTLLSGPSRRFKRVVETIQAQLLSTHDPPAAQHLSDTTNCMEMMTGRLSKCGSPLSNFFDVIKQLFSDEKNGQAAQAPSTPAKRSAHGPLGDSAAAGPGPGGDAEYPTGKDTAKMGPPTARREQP

[8] = molecular target: panel of 255 wild-type kinases (Homo sapiens, UniProt O96017)
[9] = kinase IKKε, 1 µmol/L single concentration, ref DOI: 10.1158/1535-7163.MCT-18-0877
[10] = kinase SLK, 1 µmol/L single concentration, ref DOI: 10.1158/1535-7163.MCT-18-0877
[11] = kinase LCK, 1 µmol/L single concentration, ref DOI: 10.1158/1535-7163.MCT-18-0877
[12] = kinase FRK, 1 µmol/L single concentration, ref DOI: 10.1158/1535-7163.MCT-18-0877
[13] = kinase TSSK3, 1 µmol/L single concentration, ref DOI: 10.1158/1535-7163.MCT-18-0877
[14] = kinase SRPK2, 1 µmol/L single concentration, ref DOI: 10.1158/1535-7163.MCT-18-0877
[15] = BRSK2 kinase assay, 1 µmol/L single concentration, ref DOI: 10.1158/1535-7163.MCT-18-0877
[16] = CHK2 kinase assay, 1 µmol/L single concentration, ref DOI: 10.1158/1535-7163.MCT-18-0877
[17] = kinase IKKε, 1 µmol/L single concentration, ref DOI: 10.1371/journal.pone.0092146
[18] = kinase SLK, 1 µmol/L single concentration, ref DOI: 10.1371/journal.pone.0092146
[19] = kinase LCK, 1 µmol/L single concentration, ref DOI: 10.1371/journal.pone.0092146
[20] = kinase FRK, 1 µmol/L single concentration, ref DOI: 10.1371/journal.pone.0092146
[21] = kinase TSSK3, 1 µmol/L single concentration, ref DOI: 10.1371/journal.pone.0092146
[22] = kinase SRPK2, 1 µmol/L single concentration, ref DOI: 10.1371/journal.pone.0092146
[23] = BRSK2 kinase assay, 1 µmol/L single concentration, ref DOI: 10.1371/journal.pone.0092146
[24] = CHK2 kinase assay, 1 µmol/L single concentration, ref DOI: 10.1371/journal.pone.0092146

Row | SMILES | %-inhibition at 1 µmol/L, IKKε [1, 9] [%] | %-inhibition at 1 µmol/L, SLK [2, 10] [%] | %-inhibition at 1 µmol/L, LCK [3, 11] [%] | %-inhibition at 1 µmol/L, FRK [4, 12] [%] | %-inhibition at 1 µmol/L, TSSK3 [5, 13] [%] | %-inhibition at 1 µmol/L, SRPK2 [6, 14] [%] | %-inhibition BRSK2 [7, 15] [%] | %-inhibition CHK2 [8, 16] [%] | other results
1 | CC#CC(=O)N1CCC[C@H]1c1nc(-c2ccc(C(=O)Nc3ccccn3)cc2)c2c(N)nccn12 [acalabrutinib] | 1.46 | 1.61 | 7 | 47 | -8 | 0.686 | -10 | -6 | 
2 | CCc1cc2c(cc1N1CCC(N3CCOCC3)CC1)C(C)(C)c1[nH]c3cc(C#N)ccc3c1C2=O [alectinib] | 1.59 | 12 | 20 | 53 | -3.58 | 93 | -2.35 | 96 | 
3 | COc1cc(N2CCC(N3CCN(C)CC3)CC2)ccc1Nc1ncc(Cl)c(Nc2ccccc2P(C)(C)=O)n1 [brigatinib] |  |  |  |  |  |  |  |  | %-inhibition at 1 µmol/L, IKKε [1]: 24%; %-inhibition at 1 µmol/L, SLK [2]: 95%; %-inhibition at 1 µmol/L, LCK [3]: 77%; %-inhibition at 1 µmol/L, FRK [4]: 104%; %-inhibition at 1 µmol/L, TSSK3 [5]: 3%; %-inhibition at 1 µmol/L, SRPK2 [6]: 10%; %-inhibition BRSK2 [7]: 77%; %-inhibition CHK2 [8]: 96%
4 | Cc1cc(Nc2ncc(Cl)c(Nc3ccccc3S(=O)(=O)C(C)C)n2)c(OC(C)C)cc1C1CCNCC1 [ceritinib] | 6.42 | 64 | 6 | 85 | 8 | 80 | 24 | 88 | 
5 | O=C(c1ccc(F)c(F)c1Nc1ccc(I)cc1F)N1CC(O)([C@@H]2CCCCN2)C1 [cobimetinib] | -3.35 | 6 | -3 | 0.866 | -5 | 3 | 3 | -0.103 | 
6 | C[C@@H](Oc1cc(-c2cnn(C3CCNCC3)c2)cnc1N)c1c(Cl)ccc(F)c1Cl [crizotinib] |  |  |  |  |  |  |  |  | %-inhibition at 1 µmol/L, IKKε [1, 17]: 7.49%; %-inhibition at 1 µmol/L, SLK [2, 18]: 100%; %-inhibition at 1 µmol/L, LCK [3, 19]: 98%; %-inhibition at 1 µmol/L, FRK [4, 20]: 26%; %-inhibition at 1 µmol/L, TSSK3 [5, 21]: -0.601%; %-inhibition at 1 µmol/L, SRPK2 [6, 22]: -2.33%; %-inhibition BRSK2 [7, 23]: 8%; %-inhibition CHK2 [8, 24]: 9%
7 | CC(C)(C)c1nc(-c2cccc(NS(=O)(=O)c3c(F)cccc3F)c2F)c(-c2ccnc(N)n2)s1 [dabrafenib] |  |  |  |  |  |  |  |  | %-inhibition at 1 µmol/L, IKKε [1, 17]: 15%; %-inhibition at 1 µmol/L, SLK [2, 18]: 12%; %-inhibition at 1 µmol/L, LCK [3, 19]: 83%; %-inhibition at 1 µmol/L, FRK [4, 20]: 81%; %-inhibition at 1 µmol/L, TSSK3 [5, 21]: -8%; %-inhibition at 1 µmol/L, SRPK2 [6, 22]: 11%; %-inhibition BRSK2 [7, 23]: 30%; %-inhibition CHK2 [8, 24]: 7%
8 | C=CC(=O)N1CCC[C@@H](n2nc(-c3ccc(Oc4ccccc4)cc3)c3c(N)ncnc32)C1 [ibrutinib] | -0.696 | 12 | 100 | 100 | -4 | 3 | 16 | 14 | 
9 | CO[C@@H]1[C@H](N(C)C(=O)c2ccccc2)C[C@H]2O[C@]1(C)n1c3ccccc3c3c4c(c5c6ccccc6n2c5c31)C(=O)NC4 [midostaurin] | 97 | 85 | 91 | 70 | -2.3 | 25 | 90 | 36 | 
10 | C=CC(=O)Nc1cc(Nc2nccc(-c3cn(C)c4ccccc34)n2)c(OC)cc1N(C)CCN(C)C [osimertinib] | 8 | 17 | 3.62 | 34 | -0.941 | 3.77 | -0.439 | 6 | 
